“And” between values parts separate entries of the source, which are not always exact repeats. Identical values can stand only once.
Legend:
[1] = Chemical stability of the dianilinothiadiazinone core (TLC); assay type: physicochemical; conditions: 48 h; neutral, acidic (HCl 2 M) or pH 9 aqueous conditions, BuNH2, PhNH2, PhSH, DDQ, Sn
Method: After the synthesis of the desired dianilino-TDZs (1–5), the stability of dianilinothiadiazinone in biological systems was assessed: 3,5-bis(phenylamino)-4H-1,2,6-thiadiazin-4-one (9) was subjected to neutral, acidic or slightly basic aqueous conditions (H2O/DMSO 50:50, THF/HCl 2 M 50:50 or THF/H2O 50:50 at pH 9 with a carbonate buffer), presence of amine or thiol nucleophiles (BuNH2 1 equiv., PhNH2 1 equiv., PhSH 1 equiv.), oxidizing [2,3-dichloro-5,6-dicyano-1,4-benzoquinone (DDQ) 2 equiv.] and reducing conditions (Sn, 2 equiv.).

[2] = biological target: T1, CAMKK2 kinase domain (132–470) (Homo sapiens, UniProt Q96RR4); assay: CaMKK2B TR-FRET tracer displacement assay; assay type: binding; conditions: for IC50 / FRET (IC50): CaMKK2, displacement of tracer 236, average of 2 experiments; for increase in potency over compound 2: CaMKK2 FRET IC50 relative to compound 2
T1 construct: CAMKK2 kinase domain (132–470) was cloned in a pNIC-Bio2 vector; 10xHis tag followed by a TEV site (N, cleaved yes); made in house; host or cells: E. coli BL21(DE3)-R3-BirA
From the text: To more accurately determine the relative changes in potency of the TDZ analogues and to enable measurement of accurate IC50^’s, we developed a Time-Resolved Fluorescence Resonance Energy Transfer (TR-FRET) assay. The TR-FRET tracer displacement assays were generated using a protocol derived from the Lanthascreen binding assays (ThermoFisher Scientific, Waltham, MA, USA) [21].

[3] = biological target: T2, human CaMKK2 (residues 50–588) (Homo sapiens, UniProt Q96RR4); assay: CaMKK2 enzyme assay ([γ-32P]-ATP, CaMKKtide peptide); assay type: biochemical; conditions: for IC50: 50 μM ATP, 7 concentrations, mean of 2 experiments;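 on all read-outs here: radiometric kinase assay: phosphate transfer from [γ-32P]-ATP to synthetic peptide substrate, 10 min reaction at 30 °C, peptide-bound radioactivity captured on P81 paper and measured by scintillation counting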
T2 construct: recombinant bacterial expressed human CaMKK2 (residues 50–588); made in house
Method: CaMKK2 activity was measured by determining the rate of transfer of radiolabeled phosphate from [γ-^32P]-ATP to a synthetic peptide substrate [22].
A standard 30 μL assay, 1 ng of recombinant bacterial expressed human CaMKK2 (residues 50–588) was added to assay buffer (50 mM HEPES [pH 7.4], 1 mM DTT, 0.02% (v/v) Brij-35) containing 200 μM CaMKKtide peptide substrate, 50 μM CaCl2, 1 μM calmodulin (Sigma-Aldrich Corp., St. Louis, MO, USA), 50 μM [γ-^32P]-ATP (Perkin Elmer) and 5 mM MgCl2, in the presence and absence of different concentrations of small-molecule inhibitors. Reactions were incubated for 10 min at 30 °C, after which they were terminated by spotting 15 μL onto P81 phosphocellulose paper (Whatman, GE Healthcare, Chicago, IL, USA) and washing extensively in 1% phosphoric acid. Radioactivity was quantified by scintillation counting.

[4] = system: arylhydrocarbon receptor (AhR); set-up: method as in PMID 18755850; conditions: cited from earlier work
[5] = system: kinases including ERK8, MNK1 and PIM3; set-up: method as in PMID 17519230, PMID 12540834; conditions: cited from earlier work
[6] = set-up: method as in PMID 17519230, PMID 12540834; conditions: cited from earlier work

T1 sequence (Q96RR4 132-470): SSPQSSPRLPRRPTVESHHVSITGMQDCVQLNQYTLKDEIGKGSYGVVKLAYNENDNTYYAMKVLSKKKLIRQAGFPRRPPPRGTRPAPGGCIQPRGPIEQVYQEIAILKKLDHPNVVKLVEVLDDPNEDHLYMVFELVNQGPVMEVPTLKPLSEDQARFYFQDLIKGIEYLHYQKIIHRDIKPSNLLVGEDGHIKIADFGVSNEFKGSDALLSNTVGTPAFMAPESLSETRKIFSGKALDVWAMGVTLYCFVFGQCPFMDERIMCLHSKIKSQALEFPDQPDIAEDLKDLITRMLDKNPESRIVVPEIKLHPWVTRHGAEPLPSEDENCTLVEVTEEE

| Molecule | IC50 [2] | melting point | Enzyme assay raw data (0 μM drug = 100.00) ([3]; [drug] 0.001 μM) | Enzyme assay raw data (0 μM drug = 100.00) ([3]; [drug] 0.01 μM) | Enzyme assay raw data (0 μM drug = 100.00) ([3]; [drug] 0.1 μM) | Enzyme assay raw data (0 μM drug = 100.00) ([3]; [drug] 1 μM) | Enzyme assay raw data (0 μM drug = 100.00) ([3]; [drug] 10 μM) | Enzyme assay raw data (0 μM drug = 100.00) ([3]; [drug] 100 μM) | other results |
| --- | --- | --- | --- | --- | --- | --- | --- | --- | --- |
| O=c1c(Nc2ccccc2)nsnc1Nc1ccccc1 [Compound 9, 3,5-bis(phenylamino)-4H-1,2,6-thiadiazin-4-one] | – | – | – | – | – | – | – | – | stability (by TLC) [1]: stable |
| O=C(O)c1ccc2c3c1cccc3c(=O)n1c3ccccc3nc21 [STO-609, 7-oxo-7H-benzimidazo[2,1-a]benz[de]isoquinoline-3-carboxylic acid, reference compound] | – | – | 88.33 | 69.88 | 42.21 | 4.64 | 1.89 | 0.07 | activity on arylhydrocarbon receptor (AhR) [4]: agonist; off-target kinome profile [5]: unfavorable off-target kinome profile; solubility [6]: poor solubility |
| Cc1ccc(Nc2nsnc(-c3ccc(C(=O)O)c(C4CCCC4)c3)c2=O)cc1O [Compound 19, 2-Cyclopentyl-4-{5-[(3-hydroxy-4-methylphenyl)amino]-4-oxo-4H-1,2,6-thiadiazin-3-yl}-benzoic acid] | 38 µM | 277 to 278 °C | – | – | – | – | – | – | – |
| 4-({5-[(3-Hydroxy-4-methylphenyl)amino]-4-oxo-4H-1,2,6-thiadiazin-3-yl}(oxazol-4-ylmethyl)amino)-benzamide [Compound 16] | > 50 µM | – | – | – | – | – | – | – | – |
| Cc1ccc(Nc2nsnc(Nc3ccc(-c4ncc[nH]4)cc3)c2=O)cc1O [Compound 11, 3-{[4-(1H-Imidazol-2-yl)phenyl]amino}-5-[(3-hydroxy-4-methylphenyl)amino]-4H-1,2,6-thiadiazin-4-one] | 3.2 µM | – | 98.56 | 93.09 | 84.85 | 79.37 | 42.11 | 1.23 | increase in potency over compound 2 [2]: > 15 fold; IC50 [3]: 6.51 µM and 6.5 µM |

Now from value to molecule, other results behind:

| IC50 [2] | melting point | Enzyme assay raw data (0 μM drug = 100.00) ([3]; [drug] 0.001 μM) | Enzyme assay raw data (0 μM drug = 100.00) ([3]; [drug] 0.01 μM) | Enzyme assay raw data (0 μM drug = 100.00) ([3]; [drug] 0.1 μM) | Enzyme assay raw data (0 μM drug = 100.00) ([3]; [drug] 1 μM) | Enzyme assay raw data (0 μM drug = 100.00) ([3]; [drug] 10 μM) | Enzyme assay raw data (0 μM drug = 100.00) ([3]; [drug] 100 μM) | Molecule | other results |
| --- | --- | --- | --- | --- | --- | --- | --- | --- | --- |
| 43 µM | 229 to 230 °C | – | – | – | – | – | – | Cc1ccc(Nc2nsnc(Nc3ccccc3C#N)c2=O)cc1O [Compound 13, 2-({5-[(3-Hydroxy-4-methylphenyl)amino]-4-oxo-4H-1,2,6-thiadiazin-3-yl}amino)benzonitrile] | – |
| 10.5 µM | – | 102.38 | 95.03 | 89.54 | 79.70 | 28.43 | 0.83 | Cc1ccc(Nc2nsnc(Nc3ccc(C(=O)O)cc3)c2=O)cc1O [Compound 12, 4-({5-[(3-Hydroxy-4-methylphenyl)amino]-4-oxo-4H-1,2,6-thiadiazin-3-yl}amino)benzoic acid] | increase in potency over compound 2 [2]: > 5 fold; IC50 [3]: 4.09 µM and 4.1 µM |
| > 50 µM | – | – | – | – | – | – | – | Cc1ccc(Nc2nsnc(Nc3cccc(C(F)(F)F)c3CO)c2=O)cc1O [Compound 18, 3-[(3-Hydroxy-4-methylphenyl)amino]-5-{[2-(hydroxymethyl)-3-(trifluoromethyl)phenyl]amino}-4H-1,2,6-thiadiazin-4-one] | FRET (IC50) [2]: effectively inactive |
| > 50 µM | 258 to 259 °C | – | – | – | – | – | – | Cc1ccc(Nc2nsnc(Nc3cccc(C#N)c3)c2=O)cc1O [Compound 14, 3-({5-[(3-Hydroxy-4-methylphenyl)amino]-4-oxo-4H-1,2,6-thiadiazin-3-yl}amino)benzonitrile] | – |
| > 50 µM | 280 °C (dec.) | – | – | – | – | – | – | Cc1ccc(Nc2nsnc(Nc3ccc(C#N)cc3)c2=O)cc1O [Compound 15, 4-({5-[(3-Hydroxy-4-methylphenyl)amino]-4-oxo-4H-1,2,6-thiadiazin-3-yl}amino)benzonitrile] | – |
| > 50 µM | – | – | – | – | – | – | – | Cc1ccc(Nc2nsnc(Nc3ccccc3CO)c2=O)cc1O [Compound 17, 3-[(3-Hydroxy-4-methylphenyl)amino]-5-{[2-(hydroxymethyl)phenyl]amino}-4H-1,2,6-thiadiazin-4-one] | FRET (IC50) [2]: effectively inactive |
| 7.8 µM | – | 102.30 | 98.48 | 91.02 | 85.36 | 52.53 | 2.19 | Cc1ccc(Nc2nsnc(Nc3ccccc3C(N)=O)c2=O)cc1O [Compound 10, 2-({5-[(3-Hydroxy-4-methylphenyl)amino]-4-oxo-4H-1,2,6-thiadiazin-3-yl}amino)benzamide] | increase in potency over compound 2 [2]: > 8 fold; IC50 [3]: 11.9 µM |
